Test results reported in publication PMC11111408, “Concurrent inhibition of oncogenic and wild-type RAS-GTP for cancer therapy” (Nature, 2024).
Where two headings read alike, the source gives them in different places.

Tested on: panel of 183 cancer cell lines
Assay: Cell panel of 183 cancer cell lines, viability (CTG) at Crown Bioscience
Assay type: cell-based
Settings: Homo sapiens
Excerpt: The panel consisted of cell lines with any substitution at position 12 of KRAS, NRAS or HRAS (KRAS(G12X), NRAS(G12X), HRAS(G12X)); substitutions in KRAS, NRAS or HRAS at any position other than 12, 13 and 61 (KRAS(other/VUS), NRAS(other/VUS), HRAS(other/VUS)); other oncogenic mutations in the RAS pathway (ABL1, ALK, ARAF, BRAF, CBL, EGFR, ERBB2, ERBB3, ERBB4, ERRFI1, FGFR1, FGFR2, FGFR3, FGFR4, FLT3, HRAS, IGF1R, JAK2, KIT, MAP2K1, MAP2K2, MAPK1, MET, NF1, NRAS, NTRK1, NTRK2, NTRK3, PDGFRA, PTPN11, RAC1, RAF1, RASA1, RET, RIT1, ROS1 and SOS1); and no oncogenic mutations in the RAS pathway. […] Cells were incubated for 120 h, and cell viability was determined using the CellTiter-Glo Luminescent Cell Viability Assay (CTG) (Promega, G7572) according to the manufacturer’s instructions.

Compound `CCn1c(-c2cc(N3CCN(C4CC4)CC3)cnc2[C@H](C)OC)c2c3cc(ccc31)-c1csc(n1)C[C@H](NC(=O)[C@H]1[C@@H]3COC[C@@H]31)C(=O)N1CCC[C@H](N1)C(=O)OCC(C)(C)C2` [RMC-7977] has an EC50 (786-0, read-out: RMC-7977 EC50 (M), 786O, RAS pathway WT, Kidney) of over 1e-06 M, an EC50 (A 172, read-out: RMC-7977 EC50 (M), A172, RAS pathway WT, Brain&Nerves) of 1.19e-07 M and an EC50 (A549, read-out: RMC-7977 EC50 (M), A549, KRAS G12S, Lung) of 5.13e-09 M. For the same compound, the EC50 (A-375, read-out: RMC-7977 EC50 (M), A375, BRAF V600E, Skin) was over 1e-06 M, the EC50 (A-427, read-out: RMC-7977 EC50 (M), A427, KRAS G12D, Lung) was 4.79e-09 M and the EC50 (AN3-CA, read-out: RMC-7977 EC50 (M), AN3CA, RAS pathway WT, Uterus) was 2.87e-08 M. It also gave an EC50 (ASPC1, read-out: RMC-7977 EC50 (M), ASPC1, KRAS G12D, Pancreas) of 2.63e-09 M, an EC50 (AU565, read-out: RMC-7977 EC50 (M), AU565, RAS pathway WT, Breast) of over 1e-06 M and an EC50 (BRAF^MUT Other cell lines, read-out: median EC50) of 7.54e-08 M. For the same compound, the EC50 (BRAF^V600E cell lines, read-out: median EC50) was over 1e-06 M, the EC50 (BXPC-3, read-out: RMC-7977 EC50 (M), BXPC3, BRAF mut other, Pancreas) was 2.97e-08 M and the EC50 (CAL-51, read-out: RMC-7977 EC50 (M), CAL51, NRAS Y137H, Breast) was 2.88e-08 M. The EC50 (CAL-62, read-out: RMC-7977 EC50 (M), CAL62, KRAS G12R, HN/Thyroid) was 2.29e-09 M, the EC50 (CAPAN-1, read-out: G12X (62), RMC-7977 EC50 (CTG), CAPAN1, KRAS G12X) was 1.41e-09 M and the EC50 (CAPAN-1, read-out: RMC-7977 EC50 (M), CAPAN1, KRAS G12V, Pancreas) was 1.41e-09 M. The EC50 (CFPAC-1, read-out: G12X (62), RMC-7977 EC50 (CTG), CFPAC1, KRAS G12X) was 2.95e-09 M, the EC50 (CFPAC-1, read-out: RMC-7977 EC50 (M), CFPAC1, KRAS G12V, Pancreas) was 2.95e-09 M and the EC50 (CHL-1, read-out: RMC-7977 EC50 (M), CHL1, RAS pathway WT, Skin) was 2.61e-08 M. The EC50 (CHP-212, read-out: RMC-7977 EC50 (M), CHP212, NRAS Q61K, Brain&Nerves) was 1.58e-09 M, the EC50 (COLO 201, read-out: RMC-7977 EC50 (M), COLO201, BRAF V600E, Large intestine/Colorectum) was over 1e-06 M and the EC50 (COR-L23, read-out: G12X (62), RMC-7977 EC50 (CTG), CORL23, KRAS G12X) was 2.75e-09 M. The EC50 (COR-L23, read-out: RMC-7977 EC50 (M), CORL23, KRAS G12V, Lung) was 2.75e-09 M, the EC50 (Calu-1, read-out: RMC-7977 EC50 (M), CALU1, KRAS G12C, Lung) was 6.61e-10 M and the EC50 (Calu-6, read-out: RMC-7977 EC50 (M), CALU6, KRAS Q61K, Lung) was 1.86e-09 M. It also gave an EC50 (Capan-2, read-out: G12X (62), RMC-7977 EC50 (CTG), CAPAN2, KRAS G12X) of 3.31e-10 M, an EC50 (Capan-2, read-out: RMC-7977 EC50 (M), CAPAN2, KRAS G12V, Pancreas) of 3.31e-10 M and an EC50 (CoC1, read-out: RMC-7977 EC50 (M), COC1, KRAS G12D, Ovary) of 1.58e-09 M. It also gave an EC50 (DLD-1, read-out: RMC-7977 EC50 (M), DLD1, KRAS G13D, Large intestine/Colorectum) of 4.57e-08 M, an EC50 (DMS-53, read-out: RMC-7977 EC50 (M), DMS53, RAS pathway WT, Lung) of 7.15e-08 M and an EC50 (DMS-114, read-out: RMC-7977 EC50 (M), DMS114, RAS pathway WT, Lung) of 7.09e-07 M. For the same compound, the EC50 (DU-145, read-out: RMC-7977 EC50 (M), DU145, RAS pathway WT, Prostate) was 1.72e-08 M, the EC50 (DV-90, read-out: RMC-7977 EC50 (M), DV90, KRAS G13D, Lung) was 2.95e-08 M and the EC50 (EBC-1, read-out: RMC-7977 EC50 (M), EBC1, MET amp, Lung) was 1.13e-09 M. The EC50 (FTC-133, read-out: RMC-7977 EC50 (M), FTC133, NF1 LOF, HN/Thyroid) was over 1e-06 M, the EC50 (HCC44, read-out: RMC-7977 EC50 (M), HCC44, KRAS G12C, Lung) was 5.25e-09 M and the EC50 (HCC70, read-out: RMC-7977 EC50 (M), HCC70, RAS pathway WT, Breast) was over 1e-06 M. The EC50 (HCC78, read-out: RMC-7977 EC50 (M), HCC78, ROS1 fusion, Lung) was 7.49e-09 M, the EC50 (HCC827, HCC827, RTKMUT/fusion, read-out: EC50) was 3.03e-09 M and the EC50 (HCC827, read-out: RMC-7977 EC50 (M), HCC827, EGFR mut, Lung) was 3.03e-09 M. For the same compound, the EC50 (HCC1187, read-out: RMC-7977 EC50 (M), HCC1187, RAS pathway WT, Breast) was 2.7e-07 M, the EC50 (HCC1428, read-out: RMC-7977 EC50 (M), HCC1428, RAS pathway WT, Breast) was over 1e-06 M and the EC50 (HCC1500, read-out: RMC-7977 EC50 (M), HCC1500, RAS pathway WT, Breast) was 5.01e-08 M. For the same compound, the EC50 (HCC2279, RTKMUT/fusion, read-out: EC50) was 4.52e-09 M, the EC50 (HCC2935, read-out: RMC-7977 EC50 (M), HCC2935, EGFR mut, Lung) was 2.39e-09 M and the EC50 (HCC4006, HCC4006, RTKMUT/fusion, read-out: EC50) was 2.39e-09 M. For the same compound, the EC50 (HCC4006, read-out: RMC-7977 EC50 (M), HCC4006, EGFR mut, Lung) was 2.39e-09 M, the EC50 (HCT-8, read-out: RMC-7977 EC50 (M), HCT8, KRAS G13D, Large intestine/Colorectum) was 3.02e-08 M and the EC50 (HCT-15, read-out: RMC-7977 EC50 (M), HCT15, KRAS G13D, Large intestine/Colorectum) was 2.75e-07 M. It also gave an EC50 (HCT-116, read-out: RMC-7977 EC50 (M), HCT116, KRAS G13D, Large intestine/Colorectum) of 6.61e-09 M, an EC50 (HEC-1-A, read-out: RMC-7977 EC50 (M), HEC1A, KRAS G12D, Uterus) of 1.74e-09 M and an EC50 (HGC-27, read-out: RMC-7977 EC50 (M), HGC27, NF1 LOF, Stomach) of over 1e-06 M. For the same compound, the EC50 (HPAC, read-out: RMC-7977 EC50 (M), HPAC, KRAS G12D, Pancreas) was 1.1e-08 M, the EC50 (HPAF-II, read-out: RMC-7977 EC50 (M), HPAFII, KRAS G12D, Pancreas) was 3.24e-09 M and the EC50 (HT-1080, read-out: RMC-7977 EC50 (M), HT1080, NRAS Q61K, Soft tissue) was 2.34e-09 M. It also gave an EC50 (HepG2, read-out: RMC-7977 EC50 (M), HEPG2, NRAS Q61L, Liver) of 6.76e-09 M, an EC50 (Hs766T, read-out: RMC-7977 EC50 (M), HS766T, KRAS Q61H, Pancreas) of over 1e-06 M and an EC50 (Hs-578T, read-out: RMC-7977 EC50 (M), HS578T, HRAS G12D, Breast) of 1.45e-08 M. The EC50 (HuCCT-1, read-out: RMC-7977 EC50 (M), HUCCT1, KRAS G12D, Liver/Bile duct) was 5.13e-09 M, the EC50 (HuP-T4, read-out: RMC-7977 EC50 (M), HUPT4, KRAS G12V, Pancreas) was 2.51e-09 M and the EC50 (JHH7, read-out: RMC-7977 EC50 (M), JHH7, RAS pathway WT, Liver) was 8.08e-08 M.
